Measured values reported in patent publication US20240368139A1, “NOVEL MODULATORS OF EHMT1 AND EHMT2 AND THERAPEUTIC USE THEREOF” (Tango Therapeutics, Inc., priority 2021, published 2024).

Columns and labels:
human EHMT1 982-1266 = target: T1, human EHMT1 982-1266 (Homo sapiens, UniProt Q9H9B1); test: EHMT1 enzyme assay on histone peptide substrate (3H-SAM SPA); conditions: EHMT1 IC50, recombinant human EHMT1 982-1266, histone peptide substrate
T1 sequence (Q9H9B1 982-1266): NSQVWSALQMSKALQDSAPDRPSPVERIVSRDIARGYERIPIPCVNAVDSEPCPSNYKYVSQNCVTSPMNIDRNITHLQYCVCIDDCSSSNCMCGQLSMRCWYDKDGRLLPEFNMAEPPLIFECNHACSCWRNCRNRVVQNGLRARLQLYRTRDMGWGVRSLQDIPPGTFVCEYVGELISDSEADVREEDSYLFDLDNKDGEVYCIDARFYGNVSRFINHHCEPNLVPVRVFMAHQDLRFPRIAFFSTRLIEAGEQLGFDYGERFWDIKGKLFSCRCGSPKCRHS

H3K9me2 in HCT116 cells = test: HCT116 H3K9me2 in-cell western assay; assay type: cell-based; conditions: Homo sapiens, HCT-116, 72 h, HCT116 cells, 72 hours incubation; read-out: H3K9me2 ICW IC50
Method in brief: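 H3K9me2 signal (800 nm) was normalized to DRAQ5 DNA stain (700 nm) in an in-cell western. Cells were fixed with paraformaldehyde and probed overnight at 4° C with primary antibody.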

human EHMT2 913-1193 = target: T2, human EHMT2 913-1193 (Homo sapiens, UniProt Q96KQ7); test: EHMT2 enzyme assay on histone peptide substrate (3H-SAM SPA); conditions: EHMT2 IC50, recombinant human EHMT2 913-1193, histone peptide substrate
T2 sequence (Q96KQ7 913-1193): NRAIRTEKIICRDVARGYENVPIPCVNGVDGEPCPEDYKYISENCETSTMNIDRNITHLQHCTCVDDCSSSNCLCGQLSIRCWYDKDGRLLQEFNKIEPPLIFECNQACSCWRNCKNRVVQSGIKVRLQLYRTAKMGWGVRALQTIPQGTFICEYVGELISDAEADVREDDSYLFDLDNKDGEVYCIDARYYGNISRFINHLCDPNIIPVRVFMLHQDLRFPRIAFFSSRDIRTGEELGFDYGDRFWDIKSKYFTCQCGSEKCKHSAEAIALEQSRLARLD

IC50 (human EHMT1 982-1266) | IC50 (H3K9me2 in HCT116 cells) | IC50 (human EHMT2 913-1193) | Structure (SMILES)
100 to 500 nM | 100 to 500 nM | 500 to 2000 nM | [2H]C([2H])([2H])CNc1cc(C)nc(Nc2cc3c(c(C4=CCN(C)CCC4)c2)OCCO3)n1 [Compound 272]
< 100 nM | < 100 nM | 100 to 500 nM | [2H]C([2H])([2H])Nc1cc(C)nc(Nc2cc3c(c(C4=CCN(C)CCC4)c2)OCO3)n1 [Compound 273]
< 100 nM | < 100 nM | < 100 nM | [2H]C([2H])([2H])N1CC=C(c2cc(Nc3nc(C)cc(NC)n3)cc3c2OCC3)CCC1 [Compound 274]
100 to 500 nM | 100 to 500 nM | 500 to 2000 nM | [2H]C([2H])([2H])Nc1nc(Nc2cc3c(c(C4=CCNCCC4)c2)OCO3)nc(C)c1F [Compound 275]
100 to 500 nM | 100 to 500 nM | 100 to 500 nM | [2H]C([2H])([2H])Nc1nc(Nc2cc3c(c(C4=CCNCCC4)c2)OCC3)nc(C)c1F [Compound 276]
100 to 500 nM | 100 to 500 nM | 100 to 500 nM | CNc1nc(Nc2cc3c(c(C4=CCNCCC4)c2)OCC3)nc(C)c1F [Compound 277]
< 100 nM | 100 to 500 nM | 100 to 500 nM | CNc1cc(C)nc(Nc2cc3c(c(C4=CCN(C)CCC4)c2)OCC3)c1 [Compound 278]
100 to 500 nM | 100 to 500 nM | 500 to 2000 nM | CNc1nc(Nc2cc3c(c(C4=CCNCCC4)c2)OCO3)nc(C)c1F [Compound 279]
< 100 nM | < 100 nM | < 100 nM | CNc1cc(C)nc(Nc2cc3c(c(C4=CCN(C)CCC4)c2F)OCC3)n1 [Compound 280, N2-[6-fluoro-7-(1-methyl-2,3,4,7-tetrahydroazepin-5-yl)-2,3-dihydrobenzofuran-5-yl]-N4,6-dimethyl-pyrimidine-2,4-diamine]
< 100 nM | < 100 nM | < 100 nM | [2H]C([2H])([2H])Nc1cc(C)nc(Nc2cc3c(c(C4=CCNCCC4)c2)OCO3)n1 [Compound 281]
< 100 nM | 100 to 500 nM | 500 to 2000 nM | [2H]C([2H])([2H])Nc1cc(C)nc(Nc2cc3c(c(C4=CCN(C)CCC4)c2)OCCO3)n1 [Compound 282]
< 100 nM | < 100 nM | < 100 nM | [2H]C([2H])([2H])Nc1cc(C)nc(Nc2cc3c(c(C4=CCNCCC4)c2)OCCO3)n1 [Compound 283]
100 to 500 nM | 100 to 500 nM | 500 to 2000 nM | CNc1nc(Nc2cc3c(c(C4=CCNCCC4)c2)OCC3)nc(C)c1Cl [Compound 284]
100 to 500 nM | 100 to 500 nM | 100 to 500 nM | [2H]C([2H])([2H])CNc1cc(C)nc(Nc2cc3c(c(C4=CCNCCC4)c2)OCCO3)n1 [Compound 285]
< 100 nM | 100 to 500 nM | 100 to 500 nM | CNc1nc(Nc2cc3c(c(C4=CCN(C)CCC4)c2)OCC3)nc(C)c1C [Compound 286]
< 100 nM | < 100 nM | < 100 nM | CNc1nc(Nc2cc3c(c(C4=CCNCCC4)c2)OCC3)nc(C)c1C [Compound 287]
< 100 nM | 100 to 500 nM | < 100 nM | CNc1cc(C)nc(Nc2cc3c(c(C4=CCNCCC4)c2)OCC3)c1 [Compound 288]
100 to 500 nM | 100 to 500 nM | 100 to 500 nM | Cc1cc(NCC2CCCO2)nc(Nc2cc3c(c(C4=CCN(C)CCC4)c2)OCC3)n1 (stereo not drawn) [Compound 292]
100 to 500 nM | 500 to 2000 nM | 100 to 500 nM | COCCCNc1cc(C)nc(Nc2cc3c(c(C4=CCNCCC4)c2)OCC3)c1 [Compound 293]
< 100 nM | 100 to 500 nM | 100 to 500 nM | Cc1cc(NCC2CCCO2)nc(Nc2cc3c(c(C4=CCNCCC4)c2)OCC3)n1 (stereo not drawn) [Compound 294]
100 to 500 nM | 500 to 2000 nM | 500 to 2000 nM | COCCCNc1cc(C)nc(Nc2cc3c(c(C4=CCN(C)CCC4)c2)OCC3)c1 [Compound 295]
< 100 nM | 100 to 500 nM | 100 to 500 nM | [2H]C([2H])([2H])CNc1cc(C)nc(Nc2cc3c(c(C4=CCN(C)CCC4)c2)OCC3)n1 [Compound 296]
100 to 500 nM | 500 to 2000 nM | 500 to 2000 nM | COCCNc1cc(C)nc(Nc2cc3c(c(C4=CCN(C)CCC4)c2)OCC3)c1 [Compound 297]
< 100 nM | 100 to 500 nM | 100 to 500 nM | COCCCNc1cc(C)nc(Nc2cc3c(c(C4=CCN(C)CCC4)c2)OCC3)n1 [Compound 298]
< 100 nM | 100 to 500 nM | 100 to 500 nM | Cc1cc(NCC2CCOCC2)nc(Nc2cc3c(c(C4=CCN(C)CCC4)c2)OCC3)n1 [Compound 299]

IC50 (human EHMT1 982-1266) | IC50 (H3K9me2 in HCT116 cells) | IC50 (human EHMT2 913-1193) | Structure (SMILES)
< 100 nM | 100 to 500 nM | < 100 nM | [2H]C([2H])([2H])CNc1cc(C)nc(Nc2cc3c(c(C4=CCNCCC4)c2)OCC3)n1 [Compound 300]
< 100 nM | 100 to 500 nM | < 100 nM | [2H]C([2H])([2H])Nc1cc(C)nc(Nc2cc3c(c(C4=CCN(C)CCC4)c2)OCC3)n1 [Compound 301]
< 100 nM | < 100 nM | < 100 nM | [2H]Cc1cc(NC)nc(Nc2cc3c(c(C4=CCNCCC4)c2)OCC3)n1 [Compound 302]
< 100 nM | < 100 nM | < 100 nM | [2H]Cc1cc(NC)nc(Nc2cc3c(c(C4=CCN(C)CCC4)c2)OCC3)n1 [Compound 303]
< 100 nM | 100 to 500 nM | < 100 nM | CNc1cc(Nc2cc3c(c(C4=CCNCCC4)c2)OCC3)nc(C)c1F [Compound 304]
100 to 500 nM | 500 to 2000 nM | 100 to 500 nM | COCCNc1cc(C)nc(Nc2cc3c(c(C4=CCNCCC4)c2)OCC3)c1 [Compound 305]
< 100 nM | < 100 nM | < 100 nM | [2H]C([2H])([2H])Nc1cc(C)nc(Nc2cc3c(c(C4=CCNCCC4)c2)OCC3)n1 [Compound 306]
100 to 500 nM | 500 to 2000 nM | 500 to 2000 nM | CNc1cc(C)nc(Nc2cc3c(c(C4=CCCNCC4C)c2)OCC3)n1 (stereo not drawn) [Compound 307]
< 100 nM | 100 to 500 nM | < 100 nM | Cc1cc(NCC2CCOCC2)nc(Nc2cc3c(c(C4=CCNCCC4)c2)OCC3)n1 [Compound 308]
100 to 500 nM | 500 to 2000 nM | 500 to 2000 nM | Cc1cc(NCC(F)(F)F)cc(Nc2cc3c(c(C4=CCNCCC4)c2)OCC3)n1 [Compound 309]
< 100 nM | 100 to 500 nM | < 100 nM | COCCCNc1cc(C)nc(Nc2cc3c(c(C4=CCNCCC4)c2)OCC3)n1 [Compound 310]
100 to 500 nM | 100 to 500 nM | 500 to 2000 nM | CNc1cc(C)nc(Nc2cc3c(c(C4=CCNCCC4)c2)COC3)n1 [Compound 311]
100 to 500 nM | 500 to 2000 nM | 500 to 2000 nM | Cc1cc(NC2COC2)cc(Nc2cc3c(c(C4=CCN(C)CCC4)c2)OCC3)n1 [Compound 312]
100 to 500 nM | 500 to 2000 nM | 100 to 500 nM | Cc1cc(NC2COC2)cc(Nc2cc3c(c(C4=CCNCCC4)c2)OCC3)n1 [Compound 313]
100 to 500 nM | 100 to 500 nM | 500 to 2000 nM | CNc1cc(C2CC2)nc(Nc2cc3c(c(C4=CCN(C)CCC4)c2)OCC3)n1 [Compound 314]
100 to 500 nM | 100 to 500 nM | 100 to 500 nM | CCNc1cc(C)nc(Nc2cc3c(c(C4=CCNCCC4)c2)OCC3)n1 [Compound 315]
< 100 nM | 100 to 500 nM | 100 to 500 nM | CCc1cc(NC)nc(Nc2cc3c(c(C4=CCN(C)CCC4)c2)OCC3)n1 [Compound 316]
< 100 nM | < 100 nM | 100 to 500 nM | CNc1cc(C2CC2)nc(Nc2cc3c(c(C4=CCNCCC4)c2)OCC3)n1 [Compound 317]
100 to 500 nM | 100 to 500 nM | 500 to 2000 nM | Cc1cc(NC2CCC2)nc(Nc2cc3c(c(C4=CCN(C)CCC4)c2)OCC3)n1 [Compound 318]
< 100 nM | < 100 nM | < 100 nM | CCc1cc(NC)nc(Nc2cc3c(c(C4=CCNCCC4)c2)OCC3)n1 [Compound 319]
100 to 500 nM | 100 to 500 nM | 500 to 2000 nM | Cc1cc(NCC(F)(F)F)nc(Nc2cc3c(c(C4=CCN(C)CCC4)c2)OCC3)n1 [Compound 320]
< 100 nM | 100 to 500 nM | 100 to 500 nM | CCNc1cc(C)nc(Nc2cc3c(c(C4=CCN(C)CCC4)c2)OCC3)n1 [Compound 321]
100 to 500 nM | 500 to 2000 nM | 500 to 2000 nM | CNc1cc(C)nc(Nc2cc3c(c(C4=CCN(C)CCC4)c2)CCO3)n1 [Compound 333]
100 to 500 nM | 100 to 500 nM | 500 to 2000 nM | CNc1cc(C)nc(Nc2cc3c(c(N4C[C@H]5CNC[C@H]5C4)c2)OCCC3)n1 [Compound 338]
